Data: patent US20040197777A1, “Polymorphisms of the OCTN1 and OCTN2 cation transporters associated with inflammatory bowel disorders” (priority 2001, published 2004)

Experiments:
OCTN1 [1] = experiment: OCTN1 transporter assay: uptake of radiolabeled carnitine by cells transfected with OCTN1 L503 or L503F; type: cell-based, human
Method: Transient expression of OCTN1 (transporter assays) and OCT2 (luciferase promoter assays). For transient expression of wild-type or mutant (L503F; SEQ ID NO:7), HeLa cells were plated out at a density […] cells/dish in 100-mm plastic culture dishes (Falcon) and carnitine deficient human fibroblasts, (GM 10665) were plated out at a density 2.5×10^5 cells/well in 6-well plastic culture dishes (Falcon) 24 hr prior transfection with LipofectAMINE PLUS™ Reagent (Invitrogen, La Jolla, Calif., USA) as recommended by the manufacturer.
For HeLa cell culture, human HeLa cells were grown in D-MEM supplemented with 10% fetal bovine serum, 2 mM L-glutamine, 100 U/ml penicillin, and 100 μg/ml streptomycin. […]
For the OCTN1 transporter assays, carnitine transport measurements were made at room temperature using L-[^3H]carnitine as substrate, (specific activity 81 Ci/mmol, Moravek Biochemicals Inc.). […] The cells were then solubilized with 1× cell culture lysis reagent (Promega), and the associated radioactivity was quantitated in a liquid scintillation counter. Cellular protein content was determined according to the bicinchoninic acid method of Smith P K et al., Anal. Biochem. 150: 76-85 (1985), using BCA standard protein assay reagent kit (Pierce). […] The luciferase activity was measured on manual luminometer (Lumat LB 9501, Berthold). […]

Ulcerative Colitis = details: topical irrigation of the colon; cited from earlier work
vascular inflammation = details: various models of vascular inflammation in rodents; cited from earlier work
OCTN2 promoter = experiment: OCTN2 luciferase promoter assay; type: cell-based, human; details: HeLa cells, 20 μM arachidonic acid at 37° C.; FIG. 2
Source text: For the OCTN2 luciferase promoter assays, a Dual-Luciferase Reporter Assay System (Promega) was used to study the effect of the mutation on the OCTN2 promoter region. The OCTN2-promoter luciferase reporter gene constructs were generated by PCR amplification of approximately 2.7 kb OCTN2-promoter fragments using genomic DNA from a patient homozygous for the G allele as a template and ligation into Bg/II/MluI site of the promoterless luciferase vector pRL-null (Promega) that uses luciferase from Renilla reniformis as a reporter. For PCR primers, two primers, OCTN2-BglII:
5′-[…]-3′ (SEQ ID NO:13) and OCTN2-M1uI: 5′-[…]-3′ (SEQ ID NO:14) were used. […]
To normalize the activity of the experimental reporter, constructs were cotransfected into HeLa cells with 20-fold less firefly luciferase plasmid pGL3-P as an internal control LipofectAMINE PLUS™ Reagent (Invitrogen, La Jolla, Calif., USA) as per the manufacturer's protocol. […] The luminescence from (Renilla luciferase reaction (“experimental” reporter a:) was measured simultaneously with the activity of firefly luciferase (“control” reporter) using Dual-Luciferase Reporter Assay System (Promega). The instrumentation used was a manual luminometer (Lumat LB 9501, Berthold). The cells transfected with empty vector under similar conditions served as control. All assays were carried out in triplicate.

[2] = test system: HSF1 binding to the OCTN2 promoter; experiment: OCTN2 gel shift assay (EMSA) with HeLa nuclear extracts; type: cell-based, human; details: nuclear extract of HeLa cells treated with arachidonate; no binding at 37° C. alone
Method: For OCTN2 gel shift assays, human HeLa cells were grown in D-MEM supplemented with 10% fetal bovine serum, 2 mm […], 100 U/ml penicillin, and 100 μg/ml streptomycin at 37° C. in T-75 tissue culture flasks (Sarstedt). Heat-shocked cells were prepared by incubating the flasks in tissue culture incubator at 42° C. for 3 hr. For arachidonate experiment, the day before, the HeLa cells were starved over night with in serum-free D-MEM. The next day cells were washed twice with PBS. Cells were treated then with for 30 min with […] arachidonate at 37° C. The working concentrations were prepared from sodium arachidonate (Sigma) and stored in cold absolute ethanol as a 100 mM stock solution. Control cells were treated with an equivalent concentration of ethanol. Nuclear extracts were prepared by NP-40 based fractionation. This procedure is a modification of the procedure described by Baler R, Dahl G & Voellmy R, Mol. Cell. Biol. 13: 2486-2496 (1993). […] The protein concentration of the extracts was measured using the Bradford assay (Bio-Rad). […]
The reaction products were separated electrophoretically on 4% polyacrylamide gel for 3 h at 200 V, dried and exposed to film and detected by autoradiography.

OCTN1 [3] = details: transfected Phoenix mouse fibroblast cells, 37° C.; FIG. 4
Method: Transfected Phoenix mouse fibroblast cells were loaded with ^14C-labeled TEA for 30 min. at 37° C., washed twice in cold transport buffer, and then resuspended in transport medium. Efflux was initiated at 37° C. and measured at 0, 4, 8, 12 and 30 minutes. Measurements were taken by washing twice in cold transport buffer, solubilizing with 1× cell culture lysis reagent (Promega) and quantifying the 14C retention from 150 μL aliquots. Cellular protein content was determined according to the BCA method. For sodium-free experiments, cells were suspended in medium with sodium replaced isotonically with N-methyl-D-glucamine.

Which “reduction toward vector baseline in uptake of radiolabeled carnitine, L503F vs leucine allele” value (OCTN1 [1]; cell line from an individual lacking OCTN2 expression, FIG. 3B) does the source give for `C[N+](C)(C)CC(O)CC(=O)[O-]` (stereo not shown) [carnitine] here?
The value was 5.2 fold.

And the “reduction toward the vector-alone baseline in uptake of radiolabeled carnitine, phenylalanine allele (L503F) vs leucine allele” value (OCTN1 [1]; transient transfection into HeLa cells, FIG. 3A)?
The value was 3.6 fold.

With `CCC(=O)O[C@H](CC(=O)[O-])C[N+](C)(C)C` [PLC, propyonil-L-carnitine] as the molecule, how does the “effect on symptoms of Ulcerative Colitis” value (Ulcerative Colitis) read?
The value was “improve some symptoms of Ulcerative Colitis”.

What about the effect on inflammation (vascular inflammation) of the same molecule?
Its effect on inflammation is “inhibits inflammation”.

With `CCCCC/C=C\C/C=C\C/C=C\C/C=C\CCCC(=O)O` [arachidonic acid] as the molecule, how does the “decreased expression of luciferase construct with C allele of G-207C compared to the arachidonate-induced level” value (OCTN2 promoter) read?
Its value is 3.3 fold.

What about the “binding of nuclear factor (HSF1) to oligonucleotide with wild-type G allele of OCTN2 promoter” value [2] of the same molecule?
The value was “induced”.

For `CC[N+](CC)(CC)CC` [TEA, tetraethyl ammonium], which “efflux of radiolabeled TEA by phenylalanine (L503F) variant of OCTN1 compared with leucine variant (L503)” value (OCTN1 [3]) is on record?
Its value is “significant decrease in efflux”.
